Where two headings read alike, the source gives them in different places.
Test system: panel of 183 cancer cell lines
Experiment: Cell panel of 183 cancer cell lines, viability (CTG) at Crown Bioscience
Format: cell-based
Conditions: Homo sapiens
Text: The panel consisted of cell lines with any substitution at position 12 of KRAS, NRAS or HRAS (KRAS(G12X), NRAS(G12X), HRAS(G12X)); substitutions in KRAS, NRAS or HRAS at any position other than 12, 13 and 61 (KRAS(other/VUS), NRAS(other/VUS), HRAS(other/VUS)); other oncogenic mutations in the RAS pathway (ABL1, ALK, ARAF, BRAF, CBL, EGFR, ERBB2, ERBB3, ERBB4, ERRFI1, FGFR1, FGFR2, FGFR3, FGFR4, FLT3, HRAS, IGF1R, JAK2, KIT, MAP2K1, MAP2K2, MAPK1, MET, NF1, NRAS, NTRK1, NTRK2, NTRK3, PDGFRA, PTPN11, RAC1, RAF1, RASA1, RET, RIT1, ROS1 and SOS1); and no oncogenic mutations in the RAS pathway. […] Cells were incubated for 120 h, and cell viability was determined using the CellTiter-Glo Luminescent Cell Viability Assay (CTG) (Promega, G7572) according to the manufacturer’s instructions.

For `CCn1c(-c2cc(N3CCN(C4CC4)CC3)cnc2[C@H](C)OC)c2c3cc(ccc31)-c1csc(n1)C[C@H](NC(=O)[C@H]1[C@@H]3COC[C@@H]31)C(=O)N1CCC[C@H](N1)C(=O)OCC(C)(C)C2` [RMC-7977], the EC50 (JHH-2, read-out: RMC-7977 EC50 (M), JHH2, ROS1 fusion, Liver) was 5.37e-09 M, the EC50 (KARPAS-299, read-out: RMC-7977 EC50 (M), KARPAS299, ALK fusion, Blood/lymphoma) was 9.47e-08 M and the EC50 (KATO III, read-out: RMC-7977 EC50 (M), KATOIII, RAS pathway WT, Stomach) was 1.48e-08 M. It also gave an EC50 (KHOS/NP, read-out: RMC-7977 EC50 (M), KHOSNP, KRAS A59T, Bone) of 1.02e-09 M, an EC50 (KM 12L4, read-out: RMC-7977 EC50 (M), KM12L4, NTRK1 fusion, Large intestine/Colorectum) of 5.14e-09 M and an EC50 (KRAS^G12X mutant cell lines, read-out: median EC50) of 2.4e-09 M. It also gave an EC50 (KYSE-150, read-out: RMC-7977 EC50 (M), KYSE150, ERBB3 mut, HN/Esophagus) of 5.92e-09 M, an EC50 (KYSE-270, KYSE270, RTKMUT/fusion, read-out: EC50) of 5.99e-09 M and an EC50 (KYSE-270, read-out: RMC-7977 EC50 (M), KYSE270, EGFR mut, HN/Esophagus) of 5.99e-09 M. For the same compound, the EC50 (KYSE-410, read-out: RMC-7977 EC50 (M), KYSE410, KRAS G12C, HN/Esophagus) was 4.07e-09 M, the EC50 (LC-2-ad, read-out: RMC-7977 EC50 (M), LC2AD, RET fusion, Lung) was 5.15e-09 M and the EC50 (LCLC-97TM1, read-out: RMC-7977 EC50 (M), LCLC97TM1, KRAS G12V, Lung) was 3.47e-10 M. The EC50 (LCLC-103H, read-out: RMC-7977 EC50 (M), LCLC103H, NF1 LOF, Lung) was 3.67e-07 M, the EC50 (LN-229, read-out: RMC-7977 EC50 (M), LN229, PTPN11 mut, Brain&Nerves) was 6.69e-09 M and the EC50 (LS174T, read-out: RMC-7977 EC50 (M), LS174T, KRAS G12D, Large intestine/Colorectum) was 2.24e-08 M. It also gave an EC50 (LS180, read-out: RMC-7977 EC50 (M), LS180, KRAS G12D, Large intestine/Colorectum) of 1.62e-08 M, an EC50 (LS-123, read-out: RMC-7977 EC50 (M), LS123, KRAS G12S, Large intestine/Colorectum) of 1.29e-09 M and an EC50 (LS-513, read-out: RMC-7977 EC50 (M), LS513, KRAS G12D, Large intestine/Colorectum) of 1.2e-09 M. For the same compound, the EC50 (LS-1034, read-out: RMC-7977 EC50 (M), LS1034, KRAS A146T, Large intestine/Colorectum) was 2.51e-08 M, the EC50 (LoVo, read-out: RMC-7977 EC50 (M), LOVO, KRAS G13D, Large intestine/Colorectum) was 5.62e-08 M and the EC50 (MCF7, read-out: RMC-7977 EC50 (M), MCF7, RAS pathway WT, Breast) was greater than 1e-06 M. For the same compound, the EC50 (MES-SA, read-out: RMC-7977 EC50 (M), MESSA, RAS pathway WT, Uterus) was greater than 1e-06 M, the EC50 (MFE-296, read-out: RMC-7977 EC50 (M), MFE296, RAS pathway WT, Uterus) was greater than 1e-06 M and the EC50 (MIA PaCa-2, read-out: RMC-7977 EC50 (M), MIAPACA2, KRAS G12C, Lung) was 4.27e-09 M. For the same compound, the EC50 (MKN-1, read-out: RMC-7977 EC50 (M), MKN1, RAS pathway WT, Stomach) was 4.87e-08 M, the EC50 (MKN-45, read-out: RMC-7977 EC50 (M), MKN45, MET amp, Stomach) was 8.64e-09 M and the EC50 (MeWo, read-out: RMC-7977 EC50 (M), MEWO, NF1 LOF, Skin) was 4.86e-09 M. For the same compound, the EC50 (NCI-H23, read-out: RMC-7977 EC50 (M), NCIH23, KRAS G12C, Lung) was 8.51e-10 M, the EC50 (NCI-H358, read-out: RMC-7977 EC50 (M), NCIH358, KRAS G12C, Lung) was 6.31e-10 M and the EC50 (NCI-H441, read-out: RMC-7977 EC50 (M), NCIH441, KRAS G12V, Lung) was 3.89e-10 M. It also gave an EC50 (NCI-H460, read-out: RMC-7977 EC50 (M), NCIH460, KRAS Q61H, Lung) of 6.17e-09 M, an EC50 (NCI-H508, read-out: RMC-7977 EC50 (M), NCIH508, BRAF mut other, Large intestine/Colorectum) of 1.21e-07 M and an EC50 (NCI-H520, read-out: RMC-7977 EC50 (M), NCIH520, RAS pathway WT, Lung) of 2.85e-08 M. The EC50 (NCI-H716, read-out: RMC-7977 EC50 (M), NCIH716, KRAS R97I, Large intestine/Colorectum) was 2.75e-09 M, the EC50 (NCI-H727, read-out: RMC-7977 EC50 (M), NCIH727, KRAS G12V, Lung) was 7.24e-10 M and the EC50 (NCI-H747, read-out: RMC-7977 EC50 (M), NCIH747, KRAS G13D, Large intestine/Colorectum) was 1.82e-09 M. It also gave an EC50 (NCI-H1155, read-out: RMC-7977 EC50 (M), NCIH1155, KRAS Q61H, Lung) greater than 1e-06 M, an EC50 (NCI-H1299, read-out: RMC-7977 EC50 (M), NCIH1299, NRAS Q61K, Lung) of 1.78e-09 M and an EC50 (NCI-H1373, read-out: RMC-7977 EC50 (M), NCIH1373, KRAS G12C, Lung) of 1.78e-09 M. It also gave an EC50 (NCI-H1395, read-out: RMC-7977 EC50 (M), NCIH1395, BRAF mut other, Lung) greater than 1e-06 M, an EC50 (NCI-H1581, read-out: RMC-7977 EC50 (M), NCIH1581, RAS pathway WT, Lung) of 5.55e-08 M and an EC50 (NCI-H1650, read-out: RMC-7977 EC50 (M), NCIH1650, EGFR mut, Lung) of 4.04e-08 M. The EC50 (NCI-H1666, read-out: RMC-7977 EC50 (M), NCIH1666, BRAF mut other, Lung) was 8.2e-09 M, the EC50 (NCI-H1792, read-out: RMC-7977 EC50 (M), NCIH1792, KRAS G12C, Lung) was 1.91e-09 M and the EC50 (NCI-H1838, read-out: RMC-7977 EC50 (M), NCIH1838, NF1 LOF, Lung) was 8.76e-09 M. The EC50 (NCI-H1915, read-out: RMC-7977 EC50 (M), NCIH1915, HRAS Q61L, Lung) was 1.62e-08 M, the EC50 (NCI-H1944, read-out: RMC-7977 EC50 (M), NCIH1944, KRAS G13D, Lung) was 3.16e-08 M and the EC50 (NCI-H1975, read-out: RMC-7977 EC50 (M), NCIH1975, EGFR mut, Lung) was 4.07e-09 M. For the same compound, the EC50 (NCI-H1993, read-out: RMC-7977 EC50 (M), NCIH1993, MET amp, Lung) was 4.57e-09 M, the EC50 (NCI-H2009, read-out: RMC-7977 EC50 (M), NCIH2009, KRAS G12A, Lung) was 5.75e-09 M and the EC50 (NCI-H2087, read-out: RMC-7977 EC50 (M), NCIH2087, NRAS Q61K, Lung) was 5.89e-10 M. It also gave an EC50 (NCI-H2110, read-out: RMC-7977 EC50 (M), NCIH2110, PTPN11 mut, Lung) of 7.95e-09 M, an EC50 (NCI-H2122, read-out: RMC-7977 EC50 (M), NCIH2122, KRAS G12C, Lung) of 9.33e-10 M and an EC50 (NCI-H2172, read-out: RMC-7977 EC50 (M), NCIH2172, RAS pathway WT, Lung) of 4.73e-07 M. For the same compound, the EC50 (NCI-H2228, read-out: RMC-7977 EC50 (M), NCIH2228, ALK fusion, Lung) was 1.41e-08 M, the EC50 (NCI-H3122, read-out: RMC-7977 EC50 (M), NCIH3122, ALK fusion, Lung) was 4.62e-09 M and the EC50 (NCI-H3255, read-out: RMC-7977 EC50 (M), NCIH3255, EGFR mut, Lung) was 6.28e-09 M. For the same compound, the EC50 (NF1^LOF cell lines, read-out: median EC50) was 3.25e-08 M, the EC50 (NRAS and HRAS mutant cell lines, read-out: median EC50) was 6.76e-09 M and the EC50 (NUGC-4, read-out: RMC-7977 EC50 (M), NUGC4, NF1 LOF, Stomach) was 3.16e-09 M.

Reference: article PMC11111408, “Concurrent inhibition of oncogenic and wild-type RAS-GTP for cancer therapy” (Nature, 2024)
